{"source": "paper PMC10281575", "about": "“PfCRT mutations conferring piperaquine resistance in falciparum malaria shape the kinetics of quinoline drug binding and transport” (PLOS Pathogens, 2023)", "key": {"water-injected oocytes": {"system": "water-injected oocytes", "assay": "Radiolabeled drug uptake in water-injected control oocytes (intrinsic drug accumulation)", "assay_type": "cell-based, Xenopus laevis", "conditions": "pH 6.0, one value per biological replicate", "procedure": "Adult female X. laevis frogs (purchased from NASCO) were anesthetized by submersion in a solution of 0.3% (w/v) 3-amino benzoate methanesulfonate for 15 min. Sections of the ovary were surgically removed and placed in Ca^2+-free ND96 buffer supplemented with 0.1% collagenase D (w/v; Roche), 0.5% BSA (w/v) and 9 mM Na2HPO4 at 18°C for 14–16 h while gently shaking. The oocytes were then washed several times with ND96 buffer (5 mM HEPES, pH 7.5, 96 mM NaCl, 2 mM KCl, 1.8 mM CaCl2, 1 mM MgCl2), supplemented with […] gentamycin. Healthy-looking stage V-VI oocytes were manually selected and randomly grouped for injection. A codon-optimized coding sequence of PfCRT was subcloned into the pSP64T expression vector and subsequently linearized using the restriction endonuclease BamHI or SalI (New England Biolabs GmbH). RNA for injection was transcribed in vitro using the mMESSAGE mMACHINE SP6 Transcription kit (Ambion), diluted with nuclease-free water to a final concentration of 0.6 μg/μL and stored at -80°C. RNA was injected using precision-bore glass capillary tubes (3.5-inch glass capillaries; Drummond Scientific Co.), which were pulled on a vertical puller (P-87 Flaming/Brown micropipette puller, Sutter Instrument Co.) and graduated. The micropipettes were connected to a microinjector (Nanoject II Auto-Nanoliter Injector, Drummond Scientific Co.). Injection was conducted under stereomicroscopic control. 50 nL of nuclease-free water alone (control oocytes) or 50 nL of nuclease-free water containing 30 ng of RNA was injected per oocyte. Injected oocytes were kept for 72 h at 18°C in ND96 buffer with two daily buffer changes before being used for further experiments.\nDrug transport assays were performed as previously described. Briefly, measurements of radiolabeled drug uptake were made over 1 h, unless otherwise specified. […] Where specified, one or more unlabeled drugs were also present at the indicated concentrations. […] The uptake assays were terminated by removing the oocytes from the reaction medium and washing them three times with 2 mL of ice-cold ND96 buffer. Each oocyte was transferred to a separate scintillation vial and lysed by the addition of 200 μL of a 5% SDS solution. The radioactivity in the sample was measured using a liquid scintillation analyser Tri-Carb 4910 TR (PerkinElmer). Water-injected oocytes were analyzed in parallel as a negative control. The buffer from each condition was measured in duplicate in parallel to each experiment to transform counts per minute into pmol of drug. Drug uptake attributable to PfCRT was determined by subtracting the background uptake from water-injected oocytes from that of PfCRT-expressing oocytes. In all cases, at least three independent experiments were performed on oocytes from different frogs, and for each condition in an experiment, measurements were made from 10 oocytes per treatment."}, "PfCRT^Dd2_F145I": {"target": "T1, PfCRT^Dd2_F145I (Plasmodium falciparum, UniProt Q8IBZ9, A220S/F145I/I356T/K76T/M74I/N326S/N75E/Q271E/R371I)", "T1 construct": "expressed in transfected cells; host or cells: Xenopus laevis oocytes injected with in vitro transcribed RNA (pSP64T)", "T1 sequence (Q8IBZ9 1-424 M74I/N75E/K76T/F145I/A220S/Q271E/N326S/I356T/R371I)": "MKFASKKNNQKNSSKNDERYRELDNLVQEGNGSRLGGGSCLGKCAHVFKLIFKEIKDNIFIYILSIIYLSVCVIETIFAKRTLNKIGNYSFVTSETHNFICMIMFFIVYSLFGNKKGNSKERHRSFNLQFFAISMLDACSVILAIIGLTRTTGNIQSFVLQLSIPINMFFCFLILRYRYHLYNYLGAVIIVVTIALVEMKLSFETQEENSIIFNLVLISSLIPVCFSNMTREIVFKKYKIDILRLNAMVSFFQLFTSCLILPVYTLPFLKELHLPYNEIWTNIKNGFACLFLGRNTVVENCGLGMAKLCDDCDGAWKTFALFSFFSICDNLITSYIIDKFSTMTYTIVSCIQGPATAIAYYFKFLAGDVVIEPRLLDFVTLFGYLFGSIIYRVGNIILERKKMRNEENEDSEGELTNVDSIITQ", "assay": "Competition plot (Vtotal versus proportion of PPQ in CQ/PPQ mixtures), PfCRT^Dd2_F145I", "assay_type": "cell-based", "conditions": "for competition plot result (binding sites): CQ/PPQ mixtures, Vtotal dependent on P", "procedure": "To test this hypothesis, we performed competition plot experiments, in which the enzyme or carrier is exposed to substrate mixtures that give the same transport rate for different substrates. The experiment is performed with substrate A labeled and then repeated with substrate B labeled. […] Similar results were found for PfCRT^Dd2_F145I.\nFig 3 Competition plot of the interaction of PfCRT^Dd2 (A) and PfCRT^Dd2_F145I (B) with CQ and PPQ. The competition plot tests whether two substrates bind to the same site or distinct sites on an enzyme or transporter. A competitive reaction would yield data points that lie on a horizontal line, whereas allosteric interactions would reveal a curved relationship. PfCRT-mediated drug uptake was measured from mixtures of radiolabeled CQ and PPQ that combined yielded an uptake close to saturation (Vtotal). Vtotal was subsequently analyzed as a function of the proportion of PPQ in the mixture (P). For more details see Materials and Methods. The mean ± SEM of at least 3 independent biological replicates are shown.\nThe competition plot was performed as described elsewhere. Briefly, a concentration of CQ and a concentration of PPQ were selected (using the parameters from Table 1), such that (i) the rate of PPQ transport was equivalent to the rate of CQ transport, and (ii) the transport rate for CQ (the less efficiently transported substrate) approached its Vmax. The resulting concentrations for PfCRT^Dd2 were [CQ]^max = 400 μM and [PPQ]^max = 23.1 μM. At these concentrations of CQ and PPQ, the expected uptake is 19.8 pmol h^-1 oocyte^-1. The resulting concentrations for PfCRT^Dd2_F145I were [CQ]^max = 400 μM and [PPQ]^max = 18.2 μM. At these concentrations of CQ and PPQ, the expected uptake is 18.2 pmol h^-1 oocyte^-1. A series of reaction buffers containing CQ and PPQ at concentrations [CQ] = (1—P) x [CQ]^max and [PPQ] = P x [PPQ]^max were assembled, where P is the proportion of PPQ in the mixture. […] These corresponded to values of P equal to 0, 0.25, 0.5, 0.75, 0.9 and 1. A plot of Vtotal as a function of P yielded the competition plots. If both substrates bind to the same site, then a constant Vtotal is expected across all P values (e.g. data lies on a horizontal line). If the substrates bind to different sites, and they inhibit each other’s transport, it is expected that the curve is concave with either a minimum or a maximum."}, "[1]": {"conditions": "CQ/PPQ mixture, P = 0.25, single replicates"}, "[2]": {"conditions": "CQ/PPQ mixture, P = 0.5, single replicates"}, "[3]": {"conditions": "CQ/PPQ mixture, P = 0.75, single replicates"}, "[4]": {"conditions": "CQ/PPQ mixture, P = 0.9, single replicates"}}, "note": "Where “and” joins values, the source holds several entries; their conditions need not be identical. Equal values may be shown once."}
{"compound": "Clc1ccc2c(N3CCN(CCCN4CCN(c5ccnc6cc(Cl)ccc56)CC4)CC3)ccnc2c1", "note": "[PPQ, piperaquine]", "values": [{"measurement": "water-injected PPQ uptake at 10 min", "setting": "water-injected oocytes; 50 μM PPQ", "result": "41.08 pmol oocyte-1 and 24.73 pmol oocyte-1 and 20.03 pmol oocyte-1 and 11.15 pmol oocyte-1 and 47.19 pmol oocyte-1 and 42.00 pmol oocyte-1 and 43.00 pmol oocyte-1 and 24.03 pmol oocyte-1 and 24.68 pmol oocyte-1"}, {"measurement": "water-injected PPQ uptake at 30 min", "setting": "water-injected oocytes; 50 μM PPQ", "result": "39.93 pmol oocyte-1 and 81.64 pmol oocyte-1 and 110.61 pmol oocyte-1 and 36.25 pmol oocyte-1 and 63.03 pmol oocyte-1 and 70.49 pmol oocyte-1 and 61.47 pmol oocyte-1"}, {"measurement": "water-injected PPQ uptake at 60 min", "setting": "water-injected oocytes; 50 μM PPQ", "result": "160.55 pmol oocyte-1 and 290.10 pmol oocyte-1 and 103.17 pmol oocyte-1 and 89.81 pmol oocyte-1 and 146.11 pmol oocyte-1 and 119.20 pmol oocyte-1 and 106.15 pmol oocyte-1 and 92.97 pmol oocyte-1 and 66.51 pmol oocyte-1 and 37.81 pmol oocyte-1 and 81.90 pmol oocyte-1 and 130.00 pmol oocyte-1 and 94.16 pmol oocyte-1 and 115.25 pmol oocyte-1 and 26.09 pmol oocyte-1"}, {"measurement": "water-injected PPQ uptake at 90 min", "setting": "water-injected oocytes; 50 μM PPQ", "result": "141.60 pmol oocyte-1 and 108.94 pmol oocyte-1 and 115.49 pmol oocyte-1 and 110.70 pmol oocyte-1 and 135.43 pmol oocyte-1 and 121.15 pmol oocyte-1 and 104.62 pmol oocyte-1"}, {"measurement": "water-injected PPQ uptake at 120 min", "setting": "water-injected oocytes; 50 μM PPQ", "result": "303.20 pmol oocyte-1 and 211.45 pmol oocyte-1 and 192.46 pmol oocyte-1 and 188.86 pmol oocyte-1 and 88.47 pmol oocyte-1 and 177.90 pmol oocyte-1 and 230.86 pmol oocyte-1 and 32.42 pmol oocyte-1 and 62.20 pmol oocyte-1 and 374.51 pmol oocyte-1 and 406.68 pmol oocyte-1"}, {"measurement": "water-injected PPQ uptake at 180 min", "setting": "water-injected oocytes; 50 μM PPQ", "result": "179.29 pmol oocyte-1 and 189.51 pmol oocyte-1 and 135.33 pmol oocyte-1 and 198.05 pmol oocyte-1 and 192.50 pmol oocyte-1 and 163.03 pmol oocyte-1 and 220.09 pmol oocyte-1 and 265.31 pmol oocyte-1 and 192.47 pmol oocyte-1"}, {"measurement": "PfCRTDd2_F145I-mediated PPQ transport P = 0.25", "setting": "PfCRT^Dd2_F145I; [1]", "result": "3.27 pmol oocyte-1 h-1 and 3.77 pmol oocyte-1 h-1 and 3.82 pmol oocyte-1 h-1"}, {"measurement": "PfCRTDd2_F145I-mediated PPQ transport P = 0.5", "setting": "PfCRT^Dd2_F145I; [2]", "result": "7.53 pmol oocyte-1 h-1 and 7.99 pmol oocyte-1 h-1 and 8.13 pmol oocyte-1 h-1"}, {"measurement": "PfCRTDd2_F145I-mediated PPQ transport P = 0.75", "setting": "PfCRT^Dd2_F145I; [3]", "result": "12.62 pmol oocyte-1 h-1 and 13.41 pmol oocyte-1 h-1 and 10.66 pmol oocyte-1 h-1"}, {"measurement": "PfCRTDd2_F145I-mediated PPQ transport P = 0.9", "setting": "PfCRT^Dd2_F145I; [4]", "result": "15.10 pmol oocyte-1 h-1 and 16.36 pmol oocyte-1 h-1 and 16.00 pmol oocyte-1 h-1"}, {"measurement": "PfCRTDd2_F145I-mediated PPQ transport P = 1", "setting": "PfCRT^Dd2_F145I; CQ/PPQ mixture, P = 1, single replicates", "result": "16.57 pmol oocyte-1 h-1 and 18.61 pmol oocyte-1 h-1 and 20.05 pmol oocyte-1 h-1"}, {"measurement": "competition plot result (binding sites)", "setting": "PfCRT^Dd2_F145I", "result": "occupy different domains"}]}
{"compound": "CCN(CC)CCCC(C)Nc1ccnc2cc(Cl)ccc12", "note": "(stereo not drawn) [CQ, chloroquine]", "values": [{"measurement": "water-injected uptake of CQ at 10 min", "setting": "water-injected oocytes; 50 μM CQ", "result": "3.00 pmol oocyte-1 and 2.99 pmol oocyte-1 and 4.09 pmol oocyte-1 and 3.71 pmol oocyte-1 and 0.95 pmol oocyte-1 and 4.05 pmol oocyte-1 and 0.39 pmol oocyte-1 and 2.80 pmol oocyte-1 and 2.76 pmol oocyte-1"}, {"measurement": "water-injected uptake of CQ at 30 min", "setting": "water-injected oocytes; 50 μM CQ", "result": "5.48 pmol oocyte-1 and 5.44 pmol oocyte-1 and 5.22 pmol oocyte-1 and 9.34 pmol oocyte-1 and 5.41 pmol oocyte-1 and 1.36 pmol oocyte-1 and 4.88 pmol oocyte-1 and 5.49 pmol oocyte-1 and 4.65 pmol oocyte-1"}, {"measurement": "water-injected uptake of CQ at 60 min", "setting": "water-injected oocytes; 50 μM CQ", "result": "10.84 pmol oocyte-1 and 8.71 pmol oocyte-1 and 14.37 pmol oocyte-1 and 7.57 pmol oocyte-1 and 2.74 pmol oocyte-1 and 9.73 pmol oocyte-1 and 10.77 pmol oocyte-1 and 12.13 pmol oocyte-1 and 9.43 pmol oocyte-1"}, {"measurement": "water-injected uptake of CQ at 90 min", "setting": "water-injected oocytes; 50 μM CQ", "result": "10.67 pmol oocyte-1 and 8.60 pmol oocyte-1 and 15.53 pmol oocyte-1 and 9.13 pmol oocyte-1 and 10.08 pmol oocyte-1 and 13.10 pmol oocyte-1 and 8.74 pmol oocyte-1"}, {"measurement": "water-injected uptake of CQ at 120 min", "setting": "water-injected oocytes; 50 μM CQ", "result": "15.57 pmol oocyte-1 and 11.64 pmol oocyte-1 and 20.59 pmol oocyte-1 and 11.40 pmol oocyte-1 and 13.60 pmol oocyte-1 and 13.51 pmol oocyte-1 and 14.13 pmol oocyte-1 and 14.32 pmol oocyte-1"}, {"measurement": "water-injected uptake of CQ at 180 min", "setting": "water-injected oocytes; 50 μM CQ", "result": "15.62 pmol oocyte-1 and 20.71 pmol oocyte-1 and 19.14 pmol oocyte-1 and 17.36 pmol oocyte-1 and 14.82 pmol oocyte-1 and 15.40 pmol oocyte-1 and 19.29 pmol oocyte-1"}, {"measurement": "PfCRTDd2_F145I-mediated CQ transport P = 0", "setting": "PfCRT^Dd2_F145I; CQ/PPQ mixture, P = 0, single replicates", "result": "14.23 pmol oocyte-1 h-1 and 18.19 pmol oocyte-1 h-1 and 22.31 pmol oocyte-1 h-1"}, {"measurement": "PfCRTDd2_F145I-mediated CQ transport P = 0.25", "setting": "PfCRT^Dd2_F145I; [1]", "result": "16.38 pmol oocyte-1 h-1 and 14.89 pmol oocyte-1 h-1 and 14.95 pmol oocyte-1 h-1"}, {"measurement": "PfCRTDd2_F145I-mediated CQ transport P = 0.5", "setting": "PfCRT^Dd2_F145I; [2]", "result": "11.20 pmol oocyte-1 h-1 and 13.42 pmol oocyte-1 h-1 and 11.66 pmol oocyte-1 h-1"}, {"measurement": "PfCRTDd2_F145I-mediated CQ transport P = 0.75", "setting": "PfCRT^Dd2_F145I; [3]", "result": "8.54 pmol oocyte-1 h-1 and 5.74 pmol oocyte-1 h-1 and 7.98 pmol oocyte-1 h-1"}, {"measurement": "PfCRTDd2_F145I-mediated CQ transport P = 0.9", "setting": "PfCRT^Dd2_F145I; [4]", "result": "3.23 pmol oocyte-1 h-1 and 2.52 pmol oocyte-1 h-1"}, {"measurement": "competition plot result (binding sites)", "setting": "PfCRT^Dd2_F145I", "result": "occupy different domains"}]}
